# Assay results taken from article PMC10606064, “2-Aminothiazole-Flavonoid Hybrid Derivatives Binding to Tau Protein and Responsible for Antitumor Activity in Glioblastoma” (International Journal of Molecular Sciences, 2023).
# Tests used:
# Format in all cases: cell-based, human
# [1] = system: U87 shCTRL cells; assay: MTT cell viability assay, U87 shCTRL (expressing Tau); conditions: for IC50: Homo sapiens, U87 shCTRL, 72 h, MTT, mean ± SEM, read-out: IC50 (metabolic activity)
# Protocol: All cell lines were purchased from ATCC, Gaithersburg, MD, USA. Cells from human glioblastoma (clones U87 wt, HTB-14; U118, HTB-15; U251, HTB-12; U138, HTB-16), neuroblastoma (clone SK-N-SH, HTB-11), and colorectal adenocarcinoma (clone Caco-2, HTB-37) were routinely grown at 37 °C in a humidified atmosphere containing 5% CO2. Cells were maintained by regular passages in complete media supplemented with 10% FBS, 2mM of L-glutamine, 100 U/mL of penicillin, and 50 U/mL of streptomycin (Invitrogen, Paris, France). For U87 wt, U251, U138, and SK-N-SH cells, the medium consisted of EMEM (Lonza, Levallois Perret, France). U118 and Caco-2 lines were maintained in DMEM. The U87 wt-derived lines, U87 shCTRL, and U87 shTau2 cells were continuously maintained in complete EMEM medium supplemented with 0.4 µg/mL of puromycin. The shRNA sequences and the protocol of clone selection and Tau downregulation were previously described in [20]. For Tau expression rescue, the U87 shCTRL and U87 shTau cells were seeded two days prior to experiments at 4.10^5 cells per 60 mm dish in 6 mL of complete medium. Cells were transfected using LipofectAmine 2000 according to Invitrogen instructions and 8 µg EGFP-free plasmid constructs (for U87 shCTRL) and EGFP-hTau40 plasmid constructs (for U87 shTau) were used in total. One day prior to experiments, all cells were plated in a 96-well microtiter plate to prepare for viability assays. Cells were free from mycoplasma as determined by mycoalert tests (Lonza).
# (§1) Cells harvested from sub-confluent monolayers were seeded at 15,000 cells per mL in a 96-well microtiter plate (Cambridge Technology, Labège, France) and cultured for 24 h under standard conditions. Standard medium was then replaced by fresh medium containing no drugs or compounds at different concentrations. The surviving cells were quantified after 72 h by the MTT assay, according to the manufacturer’s instructions. Briefly, 20 µL of 3-(4,5-diMethylThiazol-2-yl)-2,5diphenyl Tetrazolium bromide (MTT) solution at 5 mg.mL^−1 was added to cells for 3 h at 37 °C. The supernatant was discarded and replaced by 100 µL of dimethyl sulfoxide to dissolve formazan crystals. The absorbance was then read at 600 nm by spectrophotometry. For all concentrations of a given compound, cell viability was expressed as the percentage of the ratio between the mean absorbance of treated cells and the mean absorbance of untreated cells. Three independent experiments were performed, and the data were expressed as percentage of survival (using the untreated cells as 100%) and subjected to statistical analysis (n = 3). The IC50 was calculated using the Chou and Talalay method.
# [2] = system: U87 shTau cells; assay: Mitochondria network analysis (citrate synthase immunofluorescence), U87 shTau; conditions: 5 µM
# Protocol: For indirect immunofluorescence of mitochondria, 10^4 cells were plated on cover glass and incubated for 24 h with compounds. Cells were then fixed in 4% formaldehyde (in PBS pH 7.4) for 20 min at RT, permeabilized with PBS-Triton X-100 0.5% for 10 min at RT. Immunostaining was carried out overnight at 4 °C with a primary anti-citrate synthase antibody (dilution 1:400 in PBS-BSA 3%; SC390693; SantaCruz Biotechnologies, Heidelberg, Germany). […] Each image was recorded with the CLSM’s spectral mode selecting specific domains of the emission spectrum. The Alexafluor488 and FITC fluorophores were excited at 488 nm with an argon laser, and fluorescence emission was collected between 496 nm and 535 nm. The TRITC fluorophore was excited at 543 nm with a helium–neon laser, and fluorescence was collected between 560 and 620 nm. […]
# The analyses of mitochondria and microtubule networks were performed using, respectively, the ‘Mitochondria analyzer’ plugin for Fiji v1.54f software and the method described in our earlier work. Briefly, a series of images were transferred to the software and corrected for background fluorescence intensity contribution. Next, the surface of 50 single cells was measured by considering the cell shape as the boundary of labelling of actin or α-tubulin cytoskeletons (respectively for measurement on mitochondria or microtubules). […]
# [3] = system: U87 glioblastoma cells; assay: MTT cell viability assay, U87; conditions: for IC50: Homo sapiens, U87, 72 h, MTT, mean ± SEM, read-out: IC50 (metabolic activity)
# Protocol: as §1
SMILES,IC50 [1],activity against U87 shCTRL cells compared to U87 shTau cells ([1]; ratio of IC50 values),impact on the mitochondria networks [2],IC50 [3],IC50 value fold lower than 1 ([3]; U87 cell line)
"Nc1nc2ccc3oc(-c4cccc(Oc5ccccc5)c4)cc(=O)c3c2s1 [Compound 2, 2-amino-7-(3-phenoxyphenyl)-9H-chromeno [6,5-d]thiazol-9-one]",1400 ± 500 nM,3 times,none of the compounds had an impact,1900 ± 700 nM,up to 10 fold
Nc1nc2ccc3oc(C(=O)O)cc(=O)c3c2s1 [Compound 5],> 100000 nM,,none of the compounds had an impact,> 100000 nM,
